This passage reports IC50, Ka and logP results from ChEMBL document CHEMBL1158188, “Natural polyphenols (vegetable tannins) as drugs: possible modes of action” (J Nat Prod, 1996).

Each structure is given as a SMILES string.

Data set [1] is described as follows: Antioxidant activity assessed by singlet oxygen scavenging assay. The format is functional.
Data set [2] can be described thus: Antioxidant activity assessed by superoxide anion scavenging assay. In kind it is functional.
Data set [3] is described as follows: Antioxidant activity assessed by hydroxyl radical scavenging assay. In kind it is functional.
A short description of data set [4]: Binding affinity to bradykinin.
A short description of data set [5]: Binding affinity to desarginyl(1)bradykinin.
The nature of data set [6]: Binding affinity to desarginyl(9)bradykinin.
Data set [7] in a line: Binding affinity to bradykinin peptide Arg-Pro-Pro-Gly-Phe.
Data set [8] can be described thus: Octanol-water partition coefficient of the compound. The format is physicochemical. The conditions noted are these: read-out: log KOW.

As to `O=C(OC[C@@H]1OC(O)[C@](O)(COC(=O)c2cc(O)c(O)c(O)c2)[C@H]1O)c1cc(O)c(O)c(O)c1` (stereo partly specified) [HAMAMELITANIN], the IC50 (as a rule, the concentration that inhibits the measured activity by half) in data set [1] was determined as 45.5 µM; in data set [2] it was 1.31 µM; in data set [3], 5.46 µM.

On to `O=C1O[C@H]([C@@H](O)CO)C(O)=C1O` [ASCORBIC ACID], for which the IC50 in data set [1] came out at 120 µM; in data set [2], 23.3 µM; in data set [3] it was 18.8 µM.

In the case of `Oc1cc(O)c2c(c1)O[C@H](c1ccc(O)c(O)c1)[C@H](O)[C@H]2c1c(O)cc(O)c2c1O[C@H](c1ccc(O)c(O)c1)[C@H](O)C2`, the Ka in data set [4] was 8.2 M⁻¹.

Turning to `O=C(OC[C@H]1O[C@@H](OC(=O)c2cc(O)c(O)c(O)c2)[C@H](OC(=O)c2cc(O)c(O)c(O)c2)[C@@H](OC(=O)c2cc(O)c(O)c(O)c2)[C@@H]1OC(=O)c1cc(O)c(O)c(O)c1)c1cc(O)c(O)c(O)c1`, the Ka in data set [5] is 20 M⁻¹; in data set [6] it was 20.4 M⁻¹; in data set [7], 13 M⁻¹; in data set [4], 33.7 M⁻¹.

In data set [4], `O=C(OC[C@H]1O[C@@H](OC(=O)c2cc(O)c(O)c(O)c2)[C@H](OC(=O)c2cc(O)c(O)c(O)c2)[C@@H](O)[C@@H]1OC(=O)c1cc(O)c(O)c(O)c1)c1cc(O)c(O)c(O)c1` displayed a Ka of 20.5 M⁻¹.

In data set [4], `O=C(OC[C@H]1O[C@@H](OC(=O)c2cc(O)c(O)c(O)c2)[C@H](O)[C@@H](OC(=O)c2cc(O)c(O)c(O)c2)[C@@H]1O)c1cc(O)c(O)c(O)c1` showed a Ka of 4.4 M⁻¹.

Consider `O=C1OCC2OC(=O)c3cc(O)c(O)c(O)c3-c3c(O)c(O)c(O)c4c3C(=O)OC(C2OC(=O)c2cc(O)c(O)c(O)c2-c2c1cc(O)c(O)c2O)C1OC(=O)c2c-4c(O)c(O)c(O)c2C1O` (stereo unspecified) [VESCALAGIN], for which the logP in data set [8] was 0.1.

Take `CCCOC(=O)c1cc(O)c(O)c(O)c1` [PROPYL GALLATE]: the values for the IC50 in data set [1], in data set [2] and in data set [3] were 66.7 µM, 1.41 µM and 86.5 µM, respectively.

In the case of `O=C(O)c1cc(O)c(O)c(O)c1` [GALLIC ACID], the IC50 is 69.8 µM in data set [1], 1.01 µM in data set [2] and 78 µM in data set [3].

For `O=C1OC[C@H]2OC(=O)c3cc(O)c(O)c(O)c3-c3c(O)c(O)c(O)c4c3C(=O)O[C@H]([C@H]3OC(=O)c5c-4c(O)c(O)c(O)c5[C@H]3O)[C@@H]2OC(=O)c2cc(O)c(O)c(O)c2-c2c1cc(O)c(O)c2O` [CASTALAGIN], the logP in data set [8] came to 0.1.
